One experiment has as its system RSV A2. As to the kind of experiment: In vitro RSV virus load (F-protein ELISA) in primary bronchial epithelial cells. The format is cell-based, respiratory syncytical virus. As to conditions: human respiratory syncytial virus, Primary bronchial epithelial cell; at 0.04 μg/mL; read-out: RSV (F-Elisa) (HBEC) % inhibition. Here is the method: Normal human bronchial epithelial cells (NHBEC) grown in 96 well plates were infected with RSV A2 (Strain A2, HFA, Salisbury, UK) at an MOI of 0.001 in the LHC8 Media:RPMI-1640 (50:50) containing 15 mM magnesium chloride and incubated for 1 hr at 37° C. for adsorption. The cells were then washed with PBS (3×200 μL), fresh media (200 μL) was added and incubation continued for 4 days. Where appropriate, cells were pre-incubated with the compound or DMSO for 2 hr, and then added again after washout of the virus.
The cells were fixed with 4% formaldehyde in PBS solution (50 μL) for 20 min, washed with washing buffer (3×200 μL; PBS including 0.5% BSA and 0.05% Tween-20) and incubated with blocking solution (5% condensed milk in PBS) for 1 hr. Cells were then washed with washing buffer (3×200 μL) and incubated for 1 hr at RT with anti-RSV (2F7) F-fusion protein antibody (40 μL; mouse monoclonal, lot 798760, Cat. No. ab43812, Abcam) in 5% BSA in PBS-tween). After washing, cells were incubated with an HRP-conjugated secondary antibody solution (50 μL) in 5% BSA in PBS-Tween (lot 00053170, Cat.No. P0447, Dako) and then TMB substrate (50 μL; substrate reagent pack, lot 269472, Cat. No. DY999, R&D Systems, Inc.) was added. This reaction was stopped by the addition of 2N H2SO4 (50 μL) and the resultant signal was determined colorimetrically (OD: 450 nm with a reference wavelength of 655 nm) in a microplate reader (Varioskan® Flash, ThermoFisher Scientific).
After washing with washing buffer, 1% SDS in distilled water (100 μL) was added to each well, and plates were shaken lightly on the shaker for 1 hr prior to reading the absorbance at 595 nm. The measured OD450-655 readings were corrected to the cell number by dividing the OD450-655 by the OD595 readings. The percentage inhibition for each well was calculated and the IC50 value was calculated from the concentration-response curve generated from the serial dilutions of compound.

Experiment [1] concerns IL-8. The experiment is described as follows: Rhinovirus-induced IL-8 release in BEAS2B cells. In kind it is cell-based. As to conditions: Homo sapiens, BEAS-2B, at 0.04 μg/mL; read-out: HRV IL-8 (BEAS2B) % inhibition. Here is the method: Human rhinovirus RV16 was obtained from the American Type Culture Collection (Manassas, Va.). Viral stocks were generated by infecting Hela cells with HRV until 80% of the cells were cytopathic.
BEAS2B cells were infected with HRV at an MOI of 5 and incubated for 2 hr at 33° C. with gentle shaking for to promote absorption. The cells were then washed with PBS, fresh media added and the cells were incubated for a further 72 hr. The supernatant was collected for assay of IL-8 concentrations using a Duoset ELISA development kit (R&D systems, Minneapolis, Minn.). […]

A further experiment has as its system HRV16. As to the kind of experiment: HRV16 induced CPE in MRC5 cells. The conditions noted are these: Human rhinovirus sp., HRV16, MRC5, at 0.04 μg/mL; read-out: HRV CPE (MRC5) % inhibition. The format is cell-based. Here is the method:
The supernatants were aspirated, and then fresh media added followed by incubation for 4 days. Where appropriate, cells were pre-incubated with compound or DMSO for 2 hr, and the compounds and DMSO added again after washout of the virus.
The percentage inhibition for each well was calculated. The IC50 value was calculated from the concentration-response curve generated by the serial dilutions of the test compounds.

Experiment [2] relates to IL-8. As to the kind of experiment: LPS-induced IL-8 release in d-U937 cells. The format is cell-based. The conditions noted are these: Homo sapiens, dU937, dU937 cells. How it is done:
(§1) U937 cells, a human monocytic cell line, were differentiated into macrophage-type cells by incubation with PMA (100 ng/mL) for 48 to 72 hr. Cells were pre-incubated with final concentrations of test compound for 2 hr and were then stimulated with LPS (0.1 μg/mL; from E. Coli: O111:B4, Sigma) for 4 hr. The supernatant was collected for determination of TNFα and IL-8 concentrations by sandwich ELISA (Duo-set, R&D systems). […] The relative 50% effective concentration (REC50) was determined from the resultant concentration-response curve. The inhibition of IL-8 production was calculated at each concentration of test compound by comparison with vehicle control.

For experiment [3], the system named is TNFα. As to the kind of experiment: LPS-induced TNFα release in d-U937 cells. In kind it is cell-based. The conditions noted are these: Homo sapiens, dU937, dU937 cells; relative to 10 μg/mL BIRB796; read-out: LPS Induced Release TNFα REC50 (dU937). Here is the method: as §1
In another experiment the test system is PBMC. As to the kind of experiment: Cell mitosis assay. The format is cell-based. The conditions noted are these: Homo sapiens, read-out: Mitosis Assay % inhibition in PBMC Cells at concn 5 μg/mL. Here is the method:
Peripheral blood mononucleocytes (PBMCs) from healthy subjects were separated from whole blood (Quintiles, London, UK) using a density gradient (Histopaque®-1077, Sigma-Aldrich, Poole, UK). The PBMCs (3 million cells per sample) were subsequently treated with 2% PHA (Sigma-Aldrich, Poole, UK) for 48 hr, followed by a 20 hr exposure to varying concentrations of test compounds. At 2 hr before collection, PBMCs were treated with demecolcine (0.1 μg/mL; Invitrogen, Paisley, UK,) to arrest cells in metaphase. To observe mitotic cells, PBMCs were permeabilised and fixed by adding Intraprep (50 μL; Beckman Coulter, France), and stained with anti-phospho-histone 3 ([…]; #9701; Cell Signalling, Danvers, Mass.) and propidium iodide (1 mg/mL; Sigma-Aldrich, Poole, UK,) as previously described (Muehlbauer P. A. and Schuler M. J., Mutation Research, 2003, 537:117-130). Fluorescence was observed using an ATTUNE flow cytometer (Invitrogen, Paisley, UK), gating for lymphocytes.

The subject of experiment [4] is TNFα. As to the kind of experiment: LPS-induced TNFα release in THP-1 cells. As to conditions: Homo sapiens, THP-1, THP1 cells. In kind it is cell-based. Here is the method: THP-1 cells, a human monocytic cell line, were stimulated with 3 μg/mL of LPS (from E. Coli; 0111:B4, Sigma) for 4 hr and the supernatant collected for determination of the TNFα concentration by sandwich ELISA (Duo-set, R&D systems). The inhibition of TNFα production was calculated at each concentration by comparison with vehicle control.

The next experiment concerns ICAM-1. The experiment is described as follows: Poly I:C-induced ICAM-1 expression in BEAS2B cells. The format is cell-based. As to conditions: Homo sapiens, BEAS-2B, read-out: PolyIC/ICAM1 IC50 (BEAS2B). How it is done: Poly I:C was used in these studies as a simple, RNA virus mimic. Poly I:C-Oligofectamine mixture (1 μg/mL Poly I:C, ±2% Oligofectamine, 25 μL; Invivogen Ltd., San Diego, Calif., and Invitrogen, Carlsbad, Calif., respectively) was transfected into BEAS2B cells (human bronchial epithelial cells, ATCC). Cells were pre-incubated with final concentrations of test compounds for 2 hr and the level of ICAM-1 expression on the cell surface was determined by cell-based ELISA. At a time point 18 hr after poly I:C transfection, cells were fixed with 4% formaldehyde in PBS (100 μL) and then endogenous peroxidase was quenched by the addition of washing buffer (100 μL, 0.05% Tween in PBS: PBS-Tween) containing 0.1% sodium azide and 1% hydrogen peroxide. Cells were washed with wash-buffer (3×200 μL). and after blocking the wells with 5% milk in PBS-Tween (100 μL) for 1 hr, the cells were incubated with anti-human ICAM-1 antibody (50 μL; Cell Signaling Technology, Danvers, Mass.) in 1% BSA PBS overnight at 4° C.
The cells were washed with PBS-Tween (3×200 μL) and incubated with the secondary antibody (100 μL; HRP-conjugated anti-rabbit IgG, Dako Ltd., Glostrup, Denmark). The cells were then incubated with of substrate (50 μL) for 2-20 min, followed by the addition of stop solution (50 μL, 1N H2SO4). The ICAM-1 signal was detected by reading […] the absorbance at 450 nm against a reference wavelength of 655 nm using a spectrophotometer. The cells were then washed with PBS-Tween (3×200 μL) and total cell numbers in each well were determined by reading absorbance at 595 nm after Crystal Violet staining (50 μL of a 2% solution in PBS) and elution by 1% SDS solution (100 μL) in distilled water. The measured OD 450-655 readings were corrected for cell number by dividing with the OD595 reading in each well. The inhibition of ICAM-1 expression was calculated at each concentration of test compound by comparison with vehicle control.

On to `CCOc1ccc(Nc2nccc(Oc3ccc(NC(=O)Nc4cc(C(C)(C)C)nn4-c4ccc(C)cc4)c4ccccc34)n2)cc1` [Example 22, 1-(3-(tert-butyl)-1-(p-tolyl)-1H-pyrazol-5-yl)-3-(4-((2-((4-ethoxyphenyl)amino)pyrimidin-4-yl)oxy)naphthalen-1-yl)urea], for which the inhibition at 0.04 µg/mL in the experiment on RSV A2 was 78%; with IL-8 [1], 100%; in the experiment with HRV16 it was 48%. The IC50 is above 1.59 µM in the experiment with IL-8 [2] and 0.03 µM in the experiment on TNFα [4]. Further, in the experiment with TNFα [3], the EC50 amounted to 0.017 µM. Also, the inhibition at 5 µg/mL in the experiment on PBMC was found to be 70.8%.

Take `Cc1ccc(-n2nc(C(C)(C)C)cc2NC(=O)Nc2ccc(Oc3ccnc(Nc4ccc(O)c(F)c4)n3)c3ccccc23)cc1` [Example 29, 1-(3-(tert-butyl)-1-(p-tolyl)-1H-pyrazol-5-yl)-3-(4-((2-((3-fluoro-4-hydroxyphenyl)amino)pyrimidin-4-yl)oxy)naphthalen-1-yl)urea]: the inhibition at 0.04 µg/mL came to 100% in the experiment on IL-8 [1] and 13% with HRV16. Moreover, the IC50 was determined as 0.0028 µM in the experiment with ICAM-1, 0.0023 µM with IL-8 [2] and 0.0016 µM in the experiment with TNFα [4]. Moreover, in the experiment on TNFα [3], the EC50 was determined as 0.011 µM.

Consider `Cc1ccc(-n2nc(C(C)(C)C)cc2NC(=O)Nc2ccc(Oc3ccnc(Nc4ccc(F)cc4)n3)c3ccccc23)cc1` [Example 23, 1-(3-(tert-butyl)-1-(p-tolyl)-1H-pyrazol-5-yl)-3-(4-((2-((4-fluorophenyl)amino)pyrimidin-4-yl)oxy)naphthalen-1-yl)urea], for which the inhibition at 0.04 µg/mL in the experiment with RSV A2 turned out to be 41%; with IL-8 [1] it was 100%; in the experiment with HRV16, 18%. Besides, the IC50 with IL-8 [2] came to 0.022 µM; in the experiment with TNFα [4], 0.024 µM. In addition, in the experiment on TNFα [3], the EC50 was determined as 0.008 µM.

For the compound `Cc1ccc(-n2nc(C(C)(C)C)cc2NC(=O)Nc2ccc(Oc3ccnc(Nc4ccc(O)cc4)n3)c3ccccc23)cc1` [Example 9, 1-(3-(tert-butyl)-1-(p-tolyl)-1H-pyrazol-5-yl)-3-(4-((2-((4-hydroxyphenyl)amino)pyrimidin-4-yl)oxy)naphthalen-1-yl)urea], the inhibition at 0.04 µg/mL with IL-8 [1] and in the experiment on HRV16 was 100% each time. The IC50 in the experiment on ICAM-1 turned out to be 0.003 µM; in the experiment with IL-8 [2] it was 0.0022 µM; in the experiment with TNFα [4], 0.0013 µM. The EC50 in the experiment on TNFα [3] was determined as 0.0017 µM. Besides, the inhibition at 5 µg/mL in the experiment on PBMC is 50.3%.

Regarding `Cc1ccc(-n2nc(C(C)(C)C)cc2NC(=O)Nc2ccc(Oc3ccnc(Nc4ccccc4C)n3)c3ccccc23)cc1` [Example 21, 1-(3-(tert-butyl)-1-(p-tolyl)-1H-pyrazol-5-yl)-3-(4-((2-(o-tolylamino)pyrimidin-4-yl)oxy)naphthalen-1-yl)urea], the inhibition at 0.04 µg/mL was determined as 66% with RSV A2, 100% with IL-8 [1] and 3% in the experiment with HRV16. Further, the IC50 in the experiment with IL-8 [2] was above 1.68 µM; in the experiment with TNFα [4], 0.017 µM. Further, the EC50 in the experiment on TNFα [3] was determined as 0.0097 µM.

As to `Cc1ccc(-n2nc(C(C)(C)C)cc2NC(=O)Nc2ccc(Oc3ccnc(Nc4ccc(Cl)cc4C)n3)c3ccccc23)cc1` [Example 18, 1-(3-(tert-butyl)-1-(p-tolyl)-1H-pyrazol-5-yl)-3-(4-((2-((4-chloro-2-methylphenyl)amino)pyrimidin-4-yl)oxy)naphthalen-1-yl)urea], the inhibition at 0.04 µg/mL was 100% in the experiment on IL-8 [1] and at most 0% in the experiment with HRV16. In addition, the IC50 in the experiment on ICAM-1 came out at 0.028 µM; in the experiment with IL-8 [2] it was 0.015 µM; with TNFα [4], 0.157 µM. Besides, in the experiment with TNFα [3], the EC50 came out at 0.013 µM.

The values are drawn from patent publication US10238658B2, “1-pyrazolyl-3-(4-((2-anilinopyrimidin-4-yl) oxy) napththalen-1-yl) ureas as p38 MAP kinase inhibitors” (Respivert Limited, priority 2011, dated 2019).
